Experiments:
Format in all cases: cell-based
K-562 = test system: K-562
MOLT-4 = test system: MOLT-4
SR = test system: SR
A549/ATCC = test system: A549/ATCC
HOP-62 = test system: HOP-62
NCI-H226 = test system: NCI-H226
NCI-H23 = settings: Non-small cell lung cancer; 10^−5 molar; 48 hours; SRB
NCI-H522 = test system: NCI-H522
HCT-15 = test system: HCT-15
HT29 = test system: HT29
KM12 = test: cells
SW-620 = test system: SW-620
SF-268 = test system: SF-268
SF-295 = test system: SF-295
SNB-19 = test system: SNB-19
SNB-75 = test system: SNB-75
U251 = test system: U251
LOX IMVI = test system: LOX IMVI
MALME-3M = settings: Melanoma; 10^−5 molar; 48 hours; SRB
MDA-MB-435 = settings: MDA-MB-435, five dose
[1] = Leukemia, 10^−5 molar, 48 hours, SRB
[2] = Homo sapiens, A549/ATCC, five dose
[3] = Non-small cell lung cancer, 10^−5 molar, 48 hours, SRB
[4] = Homo sapiens, HOP-62, five dose
[5] = Homo sapiens, NCI-H226, five dose
[6] = Homo sapiens, NCI-H522, five dose
[7] = Colon cancer, 10^−5 molar, 48 hours, SRB
[8] = Homo sapiens, HCT-15, five dose
[9] = Homo sapiens, HT-29, HT29, five dose
[10] = Homo sapiens, SW-620, five dose
[11] = CNS cancer, 10^−5 molar, 48 hours, SRB
[12] = Homo sapiens, SF-295, five dose
[13] = Homo sapiens, SNB-19, five dose
[14] = Homo sapiens, SNB-75, five dose
[15] = Homo sapiens, U-251, U251, five dose
[16] = Homo sapiens, LOX IMVI, five dose

CN(C)CCNc1nc2ccccc2c2c(=O)c3cc(Cl)ccc3sc12 [Compound N7, 10-Chloro-6-((2-(dimethylamino)ethyl)amino)-12H-thiochromeno[2,3-c]quinolin-12-one]
GI50 (K-562; Homo sapiens, K562, K-562, five dose): 1.33 µM | CC50 (K-562; Homo sapiens, K562, K-562, five dose, read-out: LC50 (the source's name)): 6.74 µM | TGI (K-562; K-562, five dose): 3.00 µM | Growth percent K-562 (K-562; [1]): −58.60% | GI50 (MOLT-4; Homo sapiens, MOLT-4, five dose): 1.71 µM | CC50 (MOLT-4; Homo sapiens, MOLT-4, five dose, read-out: LC50 (the source's name)): 6.74 µM | Growth percent MOLT-4 (MOLT-4; [1]): −56.34% | TGI (MOLT-4; MOLT-4, five dose): 3.40 µM | GI50 (SR; Homo sapiens, SR, five dose): 1.7 µM | LC50 (50% lethal concentration) (SR; Homo sapiens, SR, five dose): 8.14 µM | Growth percent SR (SR; [1]): −34.76% | TGI (SR; SR, five dose): 3.73 µM | TGI (A549/ATCC; A549/ATCC, five dose): 3.17 µM | GI50 (A549/ATCC; [2]): 1.66 µM | LC50 (A549/ATCC; [2]): 6.06 µM | Growth percent A549/ATCC (A549/ATCC; [3]): 23.38% | TGI (HOP-62; HOP-62, five dose): 2.92 µM | GI50 (HOP-62; [4]): 1.54 µM | LC50 (lethal concentration 50) (HOP-62; [4]): 5.56 µM | Growth percent HOP-62 (HOP-62; [3]): 56.42% | GI50 (NCI-H226; [5]): 1.84 µM | LC50 (concentration giving 50% net cell kill) (NCI-H226; [5]): 24.3 µM | TGI (NCI-H226; NCI-H226, five dose): 4.38 µM | Growth percent NCI-H226 (NCI-H226; [3]): 58.08% | Growth percent NCI-H23 (NCI-H23): 72.59% | GI50 (NCI-H522; [6]): 1.59 µM | LC50 (concentration causing 50% net cell kill) (NCI-H522; [6]): 5.9 µM | TGI (NCI-H522; NCI-H522, five dose): 3.07 µM | Growth percent NCI-H522 (NCI-H522; [3]): −8.99% | Growth percent HCT-15 (HCT-15; [7]): −30.05% | TGI (HCT-15; HCT-15, five dose): 3.14 µM | GI50 (HCT-15; [8]): 1.59 µM | LC50 (HCT-15; [8]): 6.21 µM | Growth percent HT29 (HT29; [7]): −84.24% | TGI (HT29; HT29, five dose): 3.36 µM | GI50 (HT29; [9]): 1.65 µM | LC50 (concentration killing 50% of cells) (HT29; [9]): 6.88 µM | Growth percent KM12 (KM12; [7]): −77.07% | GI50 (KM12; Homo sapiens, KM12, five dose): 1.78 µM | LC50 (KM12; Homo sapiens, KM12, five dose): 6.03 µM | TGI (KM12; KM12, five dose): 3.28 µM | Growth percent SW-620 (SW-620; [7]): −67.82% | GI50 (SW-620; [10]): 1.71 µM | LC50 (SW-620; [10]): 6.36 µM | TGI (SW-620; SW-620, five dose): 3.29 µM | Growth percent SF-268 (SF-268; [11]): 39.05% | GI50 (SF-268; Homo sapiens, SF-268, five dose): 1.57 µM | CC50 (SF-268; Homo sapiens, SF-268, five dose, read-out: LC50 (the source's name)): 6.35 µM | TGI (SF-268; SF-268, five dose): 3.16 µM | Growth percent SF-295 (SF-295; [11]): −32.59% | GI50 (SF-295; [12]): 1.73 µM | LC50 (SF-295; [12]): 5.98 µM | TGI (SF-295; SF-295, five dose): 3.21 µM | Growth percent SNB-19 (SNB-19; [11]): 55.44% | GI50 (SNB-19; [13]): 1.54 µM | LC50 (concentration killing 50% of cells) (SNB-19; [13]): 6.1 µM | TGI (SNB-19; SNB-19, five dose): 3.07 µM | Growth percent SNB-75 (SNB-75; [11]): 33.36% | GI50 (SNB-75; [14]): 1.28 µM | LC50 (SNB-75; [14]): 12.1 µM | TGI (SNB-75; SNB-75, five dose): 3.69 µM | Growth percent U251 (U251; [11]): −39.75% | GI50 (U251; [15]): 1.48 µM | LC50 (U251; [15]): 5.44 µM | TGI (U251; U251, five dose): 2.84 µM | GI50 (LOX IMVI; [16]): 1.68 µM | LC50 (LOX IMVI; [16]): 6.24 µM | TGI (LOX IMVI; LOX IMVI, five dose): 3.24 µM | Growth percent LOX IMVI (LOX IMVI; Melanoma, 10^−5 molar, 48 hours, SRB): −84.12% | Growth percent MALME-3M (MALME-3M): −4.32% | GI50 (MDA-MB-435; Homo sapiens): 1.71 µM | CC50 (MDA-MB-435; Homo sapiens, read-out: LC50 (the source's name)): 6.05 µM | TGI (MDA-MB-435): 3.22 µM

Source: patent publication US8927717B1, “Thiochromeno[2,3-c]quinolin-12-one derivatives, preparation method and application thereof” (National Defense Medical Center, priority 2014, dated 2015)
